Data on eleven molecules can be found in ChEMBL document CHEMBL3792294, “Efficient synthesis of new 2,3-dihydrooxazole-spirooxindoles hybrids as antimicrobial agents” (2016).

In brackets after ≈: the same amount, converted by molar mass. Activity calls are given as the source filed them. No cut-off for these calls is given here.

Format in all cases: functional
The test system of one experiment is Phytophthora infestans. Description: Antifungal activity against Phytophthora infestans after 72 hrs by agar diffusion method. For orientation: Agar diffusion results depend on both activity and mobility in agar.
Another experiment has as its system Enterobacter. Description: Antibacterial activity against Enterobacter after 24 hrs by spectrophotometry.
In experiment [1] the test system is Pseudoperonospora cubensis. As to the kind of experiment: Antifungal activity against Pseudoperonospora cubensis after 72 hrs by agar diffusion method.
The subject of the next experiment is Podosphaera fuliginea. As to the kind of experiment: Antifungal activity against Sphaerotheca fuliginea after 72 hrs by agar diffusion method.
The subject of another experiment is Klebsiella pneumoniae. Description: Antibacterial activity against Klebsiella pneumoniae after 24 hrs by spectrophotometry.
For the next experiment, the system named is Pyricularia oryzae. As to the kind of experiment: Antifungal activity against Pyricularia oryzae after 48 hrs by agar diffusion method.
A further experiment deals with Bacillus subtilis. As to the kind of experiment: Antibacterial activity against Bacillus subtilis after 24 hrs by spectrophotometry.

What is called MIC is the lowest concentration found to suppress growth. A word on the MBC: it is the lowest tested concentration that kills the bacteria rather than only halting them. Turning to `Cc1ccc(OCC(=O)NN2C(c3ccccc3)=C(c3ccccc3)OC23C(=O)Nc2ccccc23)cc1` (stereo not given), the minimum inhibitory concentration (MIC) against Phytophthora infestans was found to be 14 µg/mL (≈ 27.8 µM); with Enterobacter, 50 µg/mL (≈ 99.3 µM); in experiment [1], 12 µg/mL (≈ 23.8 µM); in the experiment with Podosphaera fuliginea, 12 µg/mL (≈ 23.8 µM); against Pyricularia oryzae, 8 µg/mL (≈ 15.9 µM). The MBC with Enterobacter was 100 µg/mL (≈ 199 µM). Moreover, the MBC result in the experiment on Klebsiella pneumoniae and with Bacillus subtilis was “inactive” each time. The MIC entry with Klebsiella pneumoniae and in the experiment with Bacillus subtilis was “inactive” in each case.
As for NYSTATIN, the minimal inhibitory concentration (MIC) in the experiment on Phytophthora infestans turned out to be 18 µg/mL; in experiment [1], 18 µg/mL; against Podosphaera fuliginea, 18 µg/mL; with Pyricularia oryzae it was 20 µg/mL.
For `Cc1cccc(OCC(=O)NN2C(c3ccccc3)=C(c3ccccc3)OC23C(=O)Nc2ccccc23)c1` (stereo not given), the minimum inhibitory concentration (MIC) with Phytophthora infestans worked out at 12 µg/mL (≈ 23.8 µM); in the experiment on Enterobacter, 40 µg/mL (≈ 79.4 µM); against Pyricularia oryzae, 20 µg/mL (≈ 39.7 µM). The molecule also showed an MBC in the experiment with Enterobacter of 100 µg/mL (≈ 199 µM). The MIC entry (in experiment [1]; in the experiment with Podosphaera fuliginea; in the experiment with Klebsiella pneumoniae; with Bacillus subtilis) was “inactive” each time. Also, the MBC result in the experiment on Klebsiella pneumoniae and in the experiment on Bacillus subtilis was “inactive” each time.
In the case of `O=C(NN1C(c2ccccc2)=C(c2ccccc2)OC12C(=O)Nc1ccccc12)c1ccc(Cl)cc1` (stereo not given), the minimum inhibitory concentration (MIC) was determined as 14 µg/mL (≈ 28.3 µM) against Phytophthora infestans; 30 µg/mL (≈ 60.7 µM) in the experiment on Enterobacter; 12 µg/mL (≈ 24.3 µM) in experiment [1]; 12 µg/mL (≈ 24.3 µM) against Podosphaera fuliginea; 50 µg/mL (≈ 101 µM) with Klebsiella pneumoniae; 14 µg/mL (≈ 28.3 µM) in the experiment on Pyricularia oryzae. In the experiment on Bacillus subtilis, this molecule gave an MIC of 50 µg/mL (≈ 101 µM). The values for the minimum bactericidal concentration (MBC) against Enterobacter, with Klebsiella pneumoniae and with Bacillus subtilis were 50 µg/mL (≈ 101 µM), 100 µg/mL (≈ 202 µM) and 100 µg/mL (≈ 202 µM), respectively.
For the molecule `O=C(COc1ccc(Cl)cc1Cl)NN1C(c2ccccc2)=C(c2ccccc2)OC12C(=O)Nc1ccccc12` (stereo not given), the MIC result (in the experiment with Phytophthora infestans; in experiment [1]; in the experiment with Pyricularia oryzae) was “inactive” each time. The values for the minimum bactericidal concentration (MBC) in the experiment with Enterobacter, in the experiment on Klebsiella pneumoniae and against Bacillus subtilis were 100 µg/mL (≈ 179 µM), 50 µg/mL (≈ 89.5 µM) and 50 µg/mL (≈ 89.5 µM), respectively. For the same molecule, the MIC was 40 µg/mL (≈ 71.6 µM) in the experiment on Enterobacter, 14 µg/mL (≈ 25.1 µM) against Podosphaera fuliginea, 25 µg/mL (≈ 44.8 µM) in the experiment with Klebsiella pneumoniae and 25 µg/mL (≈ 44.8 µM) in the experiment on Bacillus subtilis.
In the case of `COc1ccc(C(=O)NN2C(c3ccccc3)=C(c3ccccc3)OC23C(=O)Nc2ccccc23)cc1` (stereo not given), the minimal inhibitory concentration (MIC) against Phytophthora infestans turned out to be 14 µg/mL (≈ 28.6 µM); against Enterobacter, 50 µg/mL (≈ 102 µM); in experiment [1], 14 µg/mL (≈ 28.6 µM); in the experiment on Podosphaera fuliginea, 8 µg/mL (≈ 16.3 µM); in the experiment with Pyricularia oryzae it was 12 µg/mL (≈ 24.5 µM); against Bacillus subtilis, 100 µg/mL (≈ 204 µM). In addition, the figures for the MBC against Enterobacter and in the experiment with Bacillus subtilis were 100 µg/mL (≈ 204 µM) and 200 µg/mL (≈ 409 µM), respectively. For the same molecule, the MBC result with Klebsiella pneumoniae was “inactive”. For the same molecule, the MIC result in the experiment with Klebsiella pneumoniae was “inactive”.
Consider `O=C(NN1C(c2ccccc2)=C(c2ccccc2)OC12C(=O)Nc1ccccc12)c1ccccc1O` (stereo not given), for which the MIC is 14 µg/mL (≈ 29.4 µM) against Phytophthora infestans; 40 µg/mL (≈ 84.1 µM) with Enterobacter; 12 µg/mL (≈ 25.2 µM) in experiment [1]; 12 µg/mL (≈ 25.2 µM) in the experiment on Podosphaera fuliginea; 16 µg/mL (≈ 33.6 µM) in the experiment with Pyricularia oryzae; 70 µg/mL (≈ 147 µM) in the experiment with Bacillus subtilis. The MBC in the experiment on Enterobacter was determined as 50 µg/mL (≈ 105 µM); in the experiment on Bacillus subtilis, 100 µg/mL (≈ 210 µM). In the experiment on Klebsiella pneumoniae, the MBC result was “inactive”. The MIC result in the experiment with Klebsiella pneumoniae was “inactive”.
Regarding `O=C(COc1ccccc1)NN1C(c2ccccc2)=C(c2ccccc2)OC12C(=O)Nc1ccccc12` (stereo not given), the minimum inhibitory concentration (MIC) with Phytophthora infestans amounted to 14 µg/mL (≈ 28.6 µM); in the experiment with Enterobacter, 40 µg/mL (≈ 81.7 µM); in experiment [1] it was 12 µg/mL (≈ 24.5 µM); against Podosphaera fuliginea it was 16 µg/mL (≈ 32.7 µM); in the experiment with Pyricularia oryzae it was 15 µg/mL (≈ 30.6 µM); with Bacillus subtilis, 50 µg/mL (≈ 102 µM). Moreover, the MBC in the experiment with Enterobacter and in the experiment with Bacillus subtilis was 100 µg/mL (≈ 204 µM) each time. Besides, the MBC result with Klebsiella pneumoniae was “inactive”. Moreover, the MIC result in the experiment on Klebsiella pneumoniae was “inactive”.
Turning to `O=C(O)c1cn(C2CC2)c2cc(N3CCNCC3)c(F)cc2c1=O` [CIPROFLOXACIN], the MBC in the experiment with Enterobacter was 25 µg/mL (≈ 75.4 µM); against Klebsiella pneumoniae it was 25 µg/mL (≈ 75.4 µM); against Bacillus subtilis, 12.5 µg/mL (≈ 37.7 µM). The minimal inhibitory concentration (MIC) amounted to 10.2 µg/mL (≈ 30.9 µM) against Enterobacter, 6.25 µg/mL (≈ 18.9 µM) against Klebsiella pneumoniae and 6.25 µg/mL (≈ 18.9 µM) in the experiment with Bacillus subtilis.
As for `O=C(NN1C(c2ccccc2)=C(c2ccccc2)OC12C(=O)Nc1ccccc12)c1ccc([N+](=O)[O-])cc1` (stereo not given), the MIC against Phytophthora infestans was 12 µg/mL (≈ 23.8 µM); in the experiment with Enterobacter it was 30 µg/mL (≈ 59.5 µM); in experiment [1] it was 18 µg/mL (≈ 35.7 µM); against Podosphaera fuliginea it was 12 µg/mL (≈ 23.8 µM); in the experiment on Pyricularia oryzae it was 16 µg/mL (≈ 31.7 µM); with Bacillus subtilis it was 30 µg/mL (≈ 59.5 µM). The MBC with Enterobacter and in the experiment on Bacillus subtilis was 50 µg/mL (≈ 99.1 µM) in each case. Further, the MBC result with Klebsiella pneumoniae was “inactive”. Besides, the MIC entry in the experiment with Klebsiella pneumoniae was “inactive”.
Turning to `Cc1ccccc1OCC(=O)NN1C(c2ccccc2)=C(c2ccccc2)OC12C(=O)Nc1ccccc12` (stereo not given), the minimal inhibitory concentration (MIC) in the experiment with Phytophthora infestans amounted to 18 µg/mL (≈ 35.7 µM); against Enterobacter, 30 µg/mL (≈ 59.6 µM); in experiment [1], 8 µg/mL (≈ 15.9 µM); in the experiment on Podosphaera fuliginea it was 12 µg/mL (≈ 23.8 µM); in the experiment on Pyricularia oryzae it was 17 µg/mL (≈ 33.8 µM). The molecule also showed an MBC against Enterobacter of 50 µg/mL (≈ 99.3 µM). Moreover, the MBC result in the experiment with Klebsiella pneumoniae and with Bacillus subtilis was “inactive” throughout. Also, the MIC entry in the experiment on Klebsiella pneumoniae and in the experiment with Bacillus subtilis was “inactive” each time.
